From patent publication US20050208496A1, “Methods of testing for bronchial asthma or chronic obstructive pulmonary disease” (Genox Research, Inc., priority 2002, published 2005)

Tested on: respiratory epithelial cells

For “IL-13: human IL-13 (Peprotech, Inc.) added to the medium at 50 ng/mL to stimulate respiratory epithelial cells”, the “IFIT4 (38584_at) expression, fold change upon IL-13 stimulation” value (lot 2, Day 3, AI method) was 10.3 fold, the “IFITM1 (675_at) expression, fold change upon IL-13 stimulation” value (lot 2, Day 3, AI method) was 3.6 fold and the “IL13RA2 (1016_s_at) expression fold change upon IL-13 stimulation” value (lot 2, Day 3, AI method) was 15.9 fold. The “IL19 (47855_at) expression fold change” value (lot 2, Day 3, AI method) was 10.9 fold, the “ILIRL1 (40322_at) expression, fold change upon IL-13 stimulation” value (lot 2, Day 3, AI method) was 9.8 fold and the “IRF7 (36412_s_at) expression fold change” value (lot 2, Day 3, AI method) was 3.4 fold. The “ISG15 (1107_s_at) expression, fold change upon IL-13 stimulation” value (lot 2, Day 3, AI method) was 8.8 fold, the “ISG15 (38432_at) expression, fold change upon IL-13 stimulation” value (lot 2, Day 3, AI method) was 12.6 fold and the “ISG20 (33304_at) expression, fold change upon IL-13 stimulation” value (lot 2, Day 3, AI method) was 3.3 fold. The “KIAA0537 (33787_at) expression, fold change upon IL-13 stimulation” value (lot 2, Day 3, AI method) was 4.8 fold, the “KIAA1199 (36070_at) expression, fold change upon IL-13 stimulation” value (lot 2, Day 3, AI method) was 2.7 fold and the “KIAA1268 (57050_at) expression fold change” value (lot 2, Day 3, AI method) was 2.2 fold. For the same substance, the “KIAAI268 (59516_at) expression fold change” value (lot 2, Day 3, AI method) was 2.2 fold, the “KRT16 (601_s_at) expression fold change” value (lot 2, Day 3, AI method) was 5.2 fold and the “LAMP3 (37168_at) expression, fold change upon IL-13 stimulation” value (lot 2, Day 3, AI method) was 5.4 fold. For the same substance, the “LOC57118 (51085_at) expression fold change” value (lot 2, Day 3, AI method) was 2.7 fold, the “LOC64116 (40456_at) expression, fold change upon IL-13 stimulation” value (lot 2, Day 3, AI method) was 5.6 fold and the “MDA5 (51920_at) expression fold change” value (lot 2, Day 3, AI method) was 3.3 fold. For the same substance, the “MFHAS1 (50388_at) expression fold change” value (lot 2, Day 3, AI method) was 2.4 fold, the “MICB (35937_at) expression, fold change upon IL-13 stimulation” value (lot 2, Day 3, AI method) was 2.7 fold and the “MKP-L (38272_at) expression, fold change upon IL-13 stimulation” value (lot 2, Day 3, AI method) was 2.5 fold. The “MMP7 (668_s_at) expression, fold change upon IL-13 stimulation” value (lot 2, Day 3, AI method) was 3.4 fold, the “MP1 (34839_at) expression, fold change upon IL-13 stimulation” value (lot 2, Day 3, AI method) was 2 fold and the “MX2 (879_at) expression fold change” value (lot 2, Day 3, AI method) was 6.9 fold. For the same substance, the “MXI (37014_at) expression fold change” value (lot 2, Day 3, AI method) was 11.4 fold, the “NCF2 (41038_at) expression fold change” value (lot 2, Day 3, AI method) was 4.4 fold and the “NK4 (39119_s_at) expression fold change upon IL-13 stimulation” value (lot 2, Day 3, AI method) was 4.1 fold. The “NOS2A (1948_f_at) expression fold change upon IL-13 stimulation” value (lot 2, Day 3, AI method) was 14.5 fold, the “NOS2A (48918_at) expression fold change” value (lot 2, Day 3, AI method) was 25.4 fold and the “OAF (39695_at) expression, fold change upon IL-13 stimulation” value (lot 2, Day 3, AI method) was 2.7 fold. The “OAS1 (38388_at) expression fold change upon IL-13 stimulation” value (lot 2, Day 3, AI method) was 6.5 fold, the “OAS1 (38389_at) expression fold change upon IL-13 stimulation” value (lot 2, Day 3, AI method) was 4.7 fold and the “OAS2 (39263_at) expression fold change upon IL-13 stimulation” value (lot 2, Day 3, AI method) was 3.5 fold. For the same substance, the “OSF-2 (1451_s_at) expression fold change upon IL-13 stimulation” value (lot 2, Day 3, AI method) was 86.8 fold, the “PKD2 (38120_at) expression, fold change upon IL-13 stimulation” value (lot 2, Day 3, AI method) was 2.4 fold and the “PLOD2 (34795_at) expression fold change upon IL-13 stimulation” value (lot 2, Day 3, AI method) was 2 fold. For the same substance, the “PLS1 (39951_at) expression fold change” value (lot 2, Day 3, AI method) was 3.1 fold, the “PLSCR1 (32775_r_at) expression fold change upon IL-13 stimulation” value (lot 2, Day 3, AI method) was 3 fold and the “PMCH (32005_at) expression fold change” value (lot 2, Day 3, AI method) was 12.2 fold. The “PSMB9 (38287_at) expression fold change upon IL-13 stimulation” value (lot 2, Day 3, AI method) was 2.7 fold, the “PVRL2 (50320_g_at) expression fold change” value (lot 2, Day 3, AI method) was 2.2 fold and the “RASGRP1 (33291_at) expression fold change” value (lot 2, Day 3, AI method) was 3.7 fold. The “RIG-1 (59215_at) expression fold change” value (lot 2, Day 3, AI method) was 11.8 fold, the “SAMHD1 (34714_at) expression, fold change upon IL-13 stimulation” value (lot 2, Day 3, AI method) was 3.7 fold and the “SCYB10 (431_at) expression fold change upon IL-13 stimulation” value (lot 2, Day 3, AI method) was 4.9 fold. The “SCYB11 (35061_at) expression fold change upon IL-13 stimulation” value (lot 2, Day 3, AI method) was 6.8 fold, the “SECTM1 (41045_at) expression, fold change upon IL-13 stimulation” value (lot 2, Day 3, AI method) was 6.8 fold and the “SERPINB2 (37185_at) expression fold change” value (lot 2, Day 3, AI method) was 4.1 fold. The “SERPINB4 (1549_s_at) expression fold change” value (lot 2, Day 3, AI method) was 9.6 fold, the “SERPINB6 (34789_at) expression fold change” value (lot 2, Day 3, AI method) was 2.1 fold and the “SIAT1 (41352_at) expression fold change upon IL-13 stimulation” value (lot 2, Day 3, AI method) was 3.9 fold. The “SLC26A4, pendrin (36376_at) expression fold change” value (lot 2, Day 3, AI method) was 118.3 fold, the “SSI-1 (41592_at) expression, fold change upon IL-13 stimulation” value (lot 2, Day 3, AI method) was 15.5 fold and the “STAT1 (32860_g_at) expression fold change” value (lot 2, Day 3, AI method) was 2.1 fold. For the same substance, the “STAT1 (33338_at) expression fold change” value (lot 2, Day 3, AI method) was 5.8 fold, the “STAT1 (33339_g_at) expression fold change” value (lot 2, Day 3, AI method) was 3.2 fold and the “TGFB2 (1262_s_at) expression fold change upon IL-13 stimulation” value (lot 2, Day 3, AI method) was 4.1 fold. For the same substance, the “TGM2 (38404_at) expression fold change upon IL-13 stimulation” value (lot 2, Day 3, AI method) was 2.1 fold, the “THBS1 (115_at) expression fold change upon IL-13 stimulation” value (lot 2, Day 3, AI method) was 4.1 fold and the “TSPAN-3 (38612_at) expression, fold change upon IL-13 stimulation” value (lot 2, Day 3, AI method) was 2.5 fold. The “UBE2L6 (40505_at) expression fold change upon IL-13 stimulation” value (lot 2, Day 3, AI method) was 2.1 fold, the “UFD1L (811_at) expression, fold change upon IL-13 stimulation” value (lot 2, Day 3, AI method) was 3.1 fold and the “WARS (38121_at) expression fold change upon IL-13 stimulation” value (lot 2, Day 3, AI method) was 8.7 fold. The “cig5 (38549_at) expression, fold change upon IL-13 stimulation” value (lot 2, Day 3, AI method) was 14.3 fold, the “diubiquitin (39959_at) expression, fold change upon IL-13 stimulation” value (lot 2, Day 3, AI method) was 16.3 fold and the “AA167714 (54897_at) expression fold change” value (lot 2, Day 7, AI method) was 4.7 fold. The “AA420479 (52539_at) expression fold change” value (lot 2, Day 7, AI method) was 10.1 fold, the “AA541787 (52622_at) expression fold change” value (lot 2, Day 7, AI method) was 3.9 fold and the “AA582926 (52307_at) expression fold change” value (lot 2, Day 7, AI method) was 3.7 fold. The “AA604375 (44127_at) expression fold change” value (lot 2, Day 7, AI method) was 3.9 fold, the “ACP5 (677_s_at) expression, fold change upon IL-13 stimulation” value (lot 2, Day 7, AI method) was 2.8 fold and the “ADAM8 (40712_at) expression, fold change upon IL-13 stimulation” value (lot 2, Day 7, AI method) was 4.5 fold. The “ADAM28 (35479_at) expression, fold change upon IL-13 stimulation” value (lot 2, Day 7, AI method) was 3.7 fold, the “AI565105 (54886_at) expression fold change” value (lot 2, Day 7, AI method) was 2.4 fold and the “AI659927 (54033_at) expression fold change” value (lot 2, Day 7, AI method) was 3 fold. The “AI700705 (46658_at) expression fold change” value (lot 2, Day 7, AI method) was 2.5 fold, the “AI821796 (57694_at) expression fold change” value (lot 2, Day 7, AI method) was 2.5 fold and the “AI989346 (52327_s_at) expression fold change” value (lot 2, Day 7, AI method) was 2.5 fold. For the same substance, the “AKAP2 (35985_at) expression, fold change upon IL-13 stimulation” value (lot 2, Day 7, AI method) was 7.6 fold, the “AKAP2 (48035_at) expression fold change” value (lot 2, Day 7, AI method) was 6.4 fold and the “AKAP10 (36632_at) expression, fold change upon IL-13 stimulation” value (lot 2, Day 7, AI method) was 2.4 fold. For the same substance, the “ALOX15 (34636_at) expression, fold change upon IL-13 stimulation” value (lot 2, Day 7, AI method) was 322.1 fold, the “ARHE (35803_at) expression fold change upon IL-13 stimulation” value (lot 2, Day 7, AI method) was 2 fold and the “ARL7 (57151_at) expression fold change” value (lot 2, Day 7, AI method) was 5.3 fold. For the same substance, the “AW019985 (48826_s_at) expression fold change” value (lot 2, Day 7, AI method) was 14.7 fold, the “AXL (38433_at) expression, fold change upon IL-13 stimulation” value (lot 2, Day 7, AI method) was 7.5 fold and the “BAL (52167_at) expression fold change” value (lot 2, Day 7, AI method) was 1.6 fold. For the same substance, the “BIG2 (34484_at) expression, fold change upon IL-13 stimulation” value (lot 2, Day 7, AI method) was 2.9 fold, the “BST2 (39061_at) expression, fold change upon IL-13 stimulation” value (lot 2, Day 7, AI method) was 3.1 fold and the “C1S (40496_at) expression, fold change upon IL-13 stimulation” value (lot 2, Day 7, AI method) was 4.1 fold. The “C21orf11 (58957_at) expression fold change” value (lot 2, Day 7, AI method) was 2.4 fold, the “CDH6 (1620_at) expression fold change upon IL-13 stimulation” value (lot 2, Day 7, AI method) was 12.1 fold and the “CDH6 (57421_at) expression fold change” value (lot 2, Day 7, AI method) was 3.7 fold. For the same substance, the “CDH26 (46916_at) expression fold change” value (lot 2, Day 7, AI method) was 5.4 fold, the “CH25H (32363_at) expression, fold change upon IL-13 stimulation” value (lot 2, Day 7, AI method) was 12 fold and the “CLDN1 (46260_at) expression fold change” value (lot 2, Day 7, AI method) was 3.6 fold. For the same substance, the “CLDN4 (35276_at) expression, fold change upon IL-13 stimulation” value (lot 2, Day 7, AI method) was 23 fold, the “CLDN5 (38995_at) expression, fold change upon IL-13 stimulation” value (lot 2, Day 7, AI method) was 8.3 fold and the “CTSC (133_at) expression, fold change upon IL-13 stimulation” value (lot 2, Day 7, AI method) was 2.2 fold. The “CXCL16 (44095_at) expression fold change” value (lot 2, Day 7, AI method) was 2 fold, the “DBCCR1 (40292_at) expression, fold change upon IL-13 stimulation” value (lot 2, Day 7, AI method) was 19.3 fold and the “DD96 (31610_at) expression, fold change upon IL-13 stimulation” value (lot 2, Day 7, AI method) was 2.5 fold. The “DDIT3 (39420_at) expression, fold change upon IL-13 stimulation” value (lot 2, Day 7, AI method) was 29.5 fold, the “DKFZP564O0823 (41402_at) expression, fold change upon IL-13 stimulation” value (lot 2, Day 7, AI method) was 4.6 fold and the “DKFZP566J091 (57197_at) expression fold change” value (lot 2, Day 7, AI method) was 15.2 fold. The “DKFZp564N1116 (37784_at) expression, fold change upon IL-13 stimulation” value (lot 2, Day 7, AI method) was 7.8 fold.
